From patent US20090029949A1, “GPCR Ligands Identified by Computational Modeling” (priority 2006, published 2009)

Tests used:
S1P1 mutant F5.48G = target: T1, S1P1 mutant F5.48G (Homo sapiens, UniProt P21453, F210G); experiment: [32P]S1P competition binding, HEK-293 cells, F5.48G; settings: S1P1 F5.48G
T1 construct: expressed in transfected cells
Description: (§1) For the competition assays, HEK-293 cells were used. Briefly, 4×10^5 cells were plated in 24-well dishes and allowed to adhere overnight. The cells were then transfected with 0.4 μg of the cDNA using Lipofectamine 2000 (Invitrogen) and the transfection proceeded for 48 h. After washing the cells twice with ice-cold binding buffer (20 mM Tris-HCl, pH 7.4 and 150 mM NaCl), 0.1 nM [^32P]S1P and competing concentrations of cold S1P (1 nM-10 μM), resuspended in binding buffer+4% BSA, were applied to the cells and incubated on ice for 30 min. After washing the cells twice with ice-cold binding buffer+0.4% BSA, the cells were lysed with 0.5% SDS and equilibrated in scintillation fluid. The samples were measured in triplicate.

S1P1 mutant W6.48A = target: T2, S1P1 mutant W6.48A (Homo sapiens, UniProt P21453, W269A); experiment: [32P]S1P competition binding, HEK-293 cells, W6.48A; settings: S1P1 W6.48A
T2 construct: expressed in transfected cells
T2 sequence (P21453 whole entry W269A): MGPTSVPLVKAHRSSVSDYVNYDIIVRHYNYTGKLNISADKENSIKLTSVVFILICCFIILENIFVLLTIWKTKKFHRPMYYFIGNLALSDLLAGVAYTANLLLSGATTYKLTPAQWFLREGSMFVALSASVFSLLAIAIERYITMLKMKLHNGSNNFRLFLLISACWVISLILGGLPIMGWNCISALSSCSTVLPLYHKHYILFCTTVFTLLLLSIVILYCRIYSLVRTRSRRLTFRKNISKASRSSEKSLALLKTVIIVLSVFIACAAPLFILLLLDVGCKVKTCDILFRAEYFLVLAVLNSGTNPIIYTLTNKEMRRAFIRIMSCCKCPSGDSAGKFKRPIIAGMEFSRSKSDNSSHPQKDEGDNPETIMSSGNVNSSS
Description: as §1

S1P1 mutant W6.48E = target: T3, S1P1 mutant W6.48E (Homo sapiens, UniProt P21453, W269E); experiment: [35S]GTPγS binding, S1P1 W6.48E; assay type: biochemical; settings: S1P-induced, S1P1 W6.48E in RH7777 cells
T3 construct: expressed in transfected cells; host or cells: RH7777
T3 sequence (P21453 whole entry W269E): as the sequence (P21453 whole entry W269A) above, with A269E counted along it
Description: (§2) RH7777 and HEK-293 cells (ATCC, Manassas, Va.) were maintained in Dulbecco's modified minimal essential medium (DMEM) containing 10% fetal bovine serum (Hyclone, Logan, Utah). Cells (2×10^6) were transfected with 2 μg of plasmid DNA with Effectene (Qiagen, Valencia, Calif.) according to the manufacturer's instructions, for 24 h. Before ligand binding and receptor activation assays, the cells were washed twice with serum-free DMEM and serum-starved for at least 6 h.
(§3) S1P1 Receptor Activation Assays Receptor functional assays were performed in transiently transfected RH7777 cells by measuring S1P-activated [^35S]GTPγS binding as previously described (28).

S1P1 mutant V3.40T = target: T4, S1P1 mutant V3.40T (Homo sapiens, UniProt P21453, V132T); experiment: [35S]GTPγS binding, S1P1 V3.40T; assay type: biochemical; settings: S1P-induced, S1P1 V3.40T in RH7777 cells
T4 construct: expressed in transfected cells; host or cells: RH7777 (transient, pcDNA3.1)
T4 sequence (P21453 whole entry V132T): as the sequence (P21453 whole entry W269A) above, with V132T, A269W counted along it
Description: as §2, §3

S1P1 mutant V6.37T = target: T5, S1P1 mutant V6.37T (Homo sapiens, UniProt P21453, V258T); experiment: [35S]GTPγS binding, S1P1 V6.37T; assay type: biochemical; settings: S1P-induced, S1P1 V6.37T in RH7777 cells
T5 construct: expressed in transfected cells; host or cells: RH7777 (transient, pcDNA3.1)
T5 sequence (P21453 whole entry V258T): as the sequence (P21453 whole entry W269A) above, with V258T, A269W counted along it
Description: as §2, §3

S1P1 mutant L5.51E = target: T6, S1P1 mutant L5.51E (Homo sapiens, UniProt P21453, L213E); experiment: [35S]GTPγS binding, S1P1 L5.51E; assay type: biochemical; settings: S1P-induced, S1P1 L5.51E in RH7777 cells
T6 construct: expressed in transfected cells; host or cells: RH7777 (transient, pcDNA3.1)
T6 sequence (P21453 whole entry L213E): as the sequence (P21453 whole entry W269A) above, with L213E, A269W counted along it
Description: as §2, §3

[1] = target: T7, S1P1 double mutant L3.43, 3.44G (Homo sapiens, UniProt P21453, L135G/L136G); experiment: [35S]GTPγS binding, S1P1 L3.43, 3.44G; assay type: biochemical; settings: S1P-induced, S1P1 L3.43, 3.44G in RH7777 cells
T7 construct: expressed in transfected cells; host or cells: RH7777
T7 sequence (P21453 whole entry L135G/L136G): as the sequence (P21453 whole entry W269A) above, with L135G, L136G, A269W counted along it
Description: as §2, §3

S1P1 mutant F6.44G = target: T8, S1P1 mutant F6.44G (Homo sapiens, UniProt P21453, F265G); experiment: [35S]GTPγS binding, S1P1 F6.44G; assay type: biochemical; settings: S1P-induced, S1P1 F6.44G in RH7777 cells
T8 construct: expressed in transfected cells; host or cells: RH7777
T8 sequence (P21453 whole entry F265G): as the sequence (P21453 whole entry W269A) above, with F265G, A269W counted along it
Description: as §2, §3

S1P1 mutant V5.47T = target: T9, S1P1 mutant V5.47T (Homo sapiens, UniProt P21453, V209T); experiment: [35S]GTPγS binding, S1P1 V5.47T; assay type: biochemical; settings: S1P-induced, S1P1 V5.47T in RH7777 cells
T9 construct: expressed in transfected cells; host or cells: RH7777
T9 sequence (P21453 whole entry V209T): as the sequence (P21453 whole entry W269A) above, with V209T, A269W counted along it
Description: as §2, §3

S1P1 mutant L3.36E = S1P1 mutant L3.36E (Homo sapiens, UniProt P21453, L128E); experiment: [35S]GTPγS binding, S1P1 L3.36E; assay type: biochemical; set-up: expressed in transfected cells; host or cells: RH7777 (transient, pcDNA3.1); settings: S1P-induced, S1P1 L3.36E in RH7777 cells
Chain of S1P1 mutant L3.36E (P21453 whole entry L128E): as the sequence (P21453 whole entry W269A) above, with L128E, A269W counted along it
Description: as §2, §3

S1P1 mutant I5.41F = target: T10, S1P1 mutant I5.41F (Homo sapiens, UniProt P21453, I203F); experiment: [35S]GTPγS binding, S1P1 I5.41F; assay type: biochemical; settings: S1P-induced, S1P1 I5.41F in RH7777 cells
T10 construct: expressed in transfected cells; host or cells: RH7777 (transient, pcDNA3.1)
T10 sequence (P21453 whole entry I203F): as the sequence (P21453 whole entry W269A) above, with I203F, A269W counted along it
Description: as §2, §3

[2] = target: T11, S1P1 double mutant L3.43, 3.44E (Homo sapiens, UniProt P21453, L135E/L136E); experiment: [35S]GTPγS binding, S1P1 L3.43, 3.44E; assay type: biochemical; settings: S1P-induced, S1P1 L3.43, 3.44E in RH7777 cells
T11 construct: expressed in transfected cells; host or cells: RH7777
T11 sequence (P21453 whole entry L135E/L136E): as the sequence (P21453 whole entry W269A) above, with L135E, L136E, A269W counted along it
Description: as §2, §3

S1P1 mutant V6.37L = target: T12, S1P1 mutant V6.37L (Homo sapiens, UniProt P21453, V258L); experiment: [35S]GTPγS binding, S1P1 V6.37L; assay type: biochemical; settings: S1P-induced, S1P1 V6.37L in RH7777 cells
T12 construct: expressed in transfected cells; host or cells: RH7777
T12 sequence (P21453 whole entry V258L): as the sequence (P21453 whole entry W269A) above, with V258L, A269W counted along it
Description: as §2, §3

S1P1 mutant V6.40T = target: T13, S1P1 mutant V6.40T (Homo sapiens, UniProt P21453, V261T); experiment: [35S]GTPγS binding, S1P1 V6.40T; assay type: biochemical; settings: S1P-induced, S1P1 V6.40T in RH7777 cells
T13 construct: expressed in transfected cells; host or cells: RH7777
T13 sequence (P21453 whole entry V261T): as the sequence (P21453 whole entry W269A) above, with V261T, A269W counted along it
Description: as §2, §3

S1P1 mutant V6.40A = S1P1 mutant V6.40A (Homo sapiens, UniProt P21453, V261A); experiment: [35S]GTPγS binding, S1P1 V6.40A; assay type: biochemical; set-up: expressed in transfected cells; host or cells: RH7777 (GTPγS); settings: S1P-induced, S1P1 V6.40A in RH7777 cells
Chain of S1P1 mutant V6.40A (P21453 whole entry V261A): as the sequence (P21453 whole entry W269A) above, with V261A, A269W counted along it
Description: as §2, §3

S1P1 mutant C5.44I = target: T14, S1P1 mutant C5.44I (Homo sapiens, UniProt P21453, C206I); experiment: [35S]GTPγS binding, S1P1 C5.44I; assay type: biochemical; settings: S1P-induced, S1P1 C5.44I in RH7777 cells
T14 construct: expressed in transfected cells; host or cells: RH7777 (transient, pcDNA3.1)
T14 sequence (P21453 whole entry C206I): as the sequence (P21453 whole entry W269A) above, with C206I, A269W counted along it
Description: as §2, §3

S1P1 mutant L6.41E = target: T15, S1P1 mutant L6.41E (Homo sapiens, UniProt P21453, L262E); experiment: [35S]GTPγS binding, S1P1 L6.41E; assay type: biochemical; settings: S1P-induced, S1P1 L6.41E in RH7777 cells
T15 construct: expressed in transfected cells; host or cells: RH7777
T15 sequence (P21453 whole entry L262E): as the sequence (P21453 whole entry W269A) above, with L262E, A269W counted along it
Description: as §2, §3

[3] = competition with cold S1P, read-out: KD + s.d.

T1 sequence (P21453 whole entry F210G): as the sequence (P21453 whole entry W269A) above, with F210G, A269W counted along it

With `CCCCCCCCCCCCC/C=C/[C@@H](O)[C@@H](N)COP(=O)(O)O` [S1P, Sphingosine 1-phosphate] the Bmax (S1P1 mutant F5.48G) was 2580 fmol, the Kd (S1P1 mutant F5.48G; [3]) was 20.2 nM and the Bmax (S1P1 mutant W6.48A) was 2080 fmol. For the same compound, the Kd (S1P1 mutant W6.48A; [3]) was 38.5 nM, the “% WT Emax + s.d.” value (S1P1 mutant W6.48E) was “∞” and the “EC50 + s.d.” value (S1P1 mutant W6.48E) was “∞”. The EC50 (S1P1 mutant V3.40T) was 13.8 ± 1.8 nM, the Emax (S1P1 mutant V3.40T; read-out: % WT Emax + s.d.) was 137% and the EC50 (S1P1 mutant V6.37T) was 13 nM. The Emax (S1P1 mutant V6.37T; read-out: % WT Emax + s.d.) was 181%, the “% WT Emax + s.d.” value (S1P1 mutant L5.51E) was “∞” and the “EC50 + s.d.” value (S1P1 mutant L5.51E) was “∞”. The “% WT Emax + s.d.” value [1] was “∞”, the “EC50 + s.d.” value [1] was “∞” and the “% WT Emax + s.d.” value (S1P1 mutant F6.44G) was “∞”. For the same compound, the “EC50 + s.d.” value (S1P1 mutant F6.44G) was “∞”, the EC50 (S1P1 mutant V5.47T) was 89 nM and the Emax (S1P1 mutant V5.47T; read-out: % WT Emax + s.d.) was 100%. For the same compound, the EC50 (S1P1 mutant L3.36E) was 0.62 ± 0.46 nM, the Emax (S1P1 mutant L3.36E; read-out: % WT Emax + s.d.) was 39 ± 2.8% and the EC50 (S1P1 mutant I5.41F) was 18.9 nM. The Emax (S1P1 mutant I5.41F; read-out: % WT Emax + s.d.) was 27%, the “% WT Emax + s.d.” value [2] was “∞” and the “EC50 + s.d.” value [2] was “∞”. For the same compound, the EC50 (S1P1 mutant V6.37L) was 37.6 nM, the Emax (S1P1 mutant V6.37L; read-out: % WT Emax + s.d.) was 247% and the EC50 (S1P1 mutant V6.40T) was 57.3 nM. It also gave an Emax (S1P1 mutant V6.40T; read-out: % WT Emax + s.d.) of 61%, an EC50 (S1P1 mutant V6.40A) of 14.8 nM and an Emax (S1P1 mutant V6.40A; read-out: % WT Emax + s.d.) of 69%. For the same compound, the EC50 (S1P1 mutant C5.44I) was 20.4 ± 2.1 nM, the Emax (S1P1 mutant C5.44I; read-out: % WT Emax + s.d.) was 37% and the EC50 (S1P1 mutant L6.41E) was 4.1 ± 0.63 nM. For the same compound, the Emax (S1P1 mutant L6.41E; read-out: % WT Emax + s.d.) was 59%.
